Reference: US8609648B2, “Hepatitis C virus inhibitors” (Enanta Pharmaceuticals, Inc., priority 2009, dated 2013)

The compounds below were run on HCV 1b genotype replicon (assay: HCV replicon assay (qRT-PCR or luciferase)). Conditions: Hepatitis C virus, read-out: Genotype-1b replicon EC50 Range.
Type: cell-based
From the text: HCV replicon cell lines (kindly provided by R. Bartenschlager) isolated from colonies as described by Lohman et. al. (Lohman et al. (1999) Science 285: 110-113, expressly incorporated by reference in its entirety) and used for all experiments. The HCV replicon has the nucleic acid sequence set forth in EMBL Accession No.: AJ242651, the coding sequence of which is from nucleotides 1801 to 8406.
The coding sequence of the published HCV replicon was synthesized and subsequently assembled in a modified plasmid pBR322 (Promega, Madison, Wis.) using standard molecular biology techniques. One replicon cell line (“SGR 11-7”) stably expresses HCV replicon RNA which consists of (i) the HCV 5′UTR fused to the first 12 amino acids of the capsid protein, (ii) the neomycin phosphotransferase gene (neo), (iii) the IRES from encephalomyocarditis virus (EMCV), and (iv) HCV NS2 to NS5B genes and the HCV 3′UTR. Another replicon cell line (“Huh-luc/neo-ET”) described by Vrolijk et. al. (Vrolijk et. al. (2003) Journal of Virological Methods 110:201-209, expressly incorporated by reference in its entirety) stably expresses HCV replicon RNA which consists of (i) the HCV 5′UTR fused to the first 12 amino acids of the capsid protein, (ii) the firefly luciferase reporter gene, (iii) the ubiquitin gene, (iv) the neomycin phosphotransferase gene (neo), (v) the IRES from encephalomyocarditis virus (EMCV), and (vi) HCV NS3 to NS5B genes that harbor cell culture adaptive mutations (E1202G, T1280I, K1846T) and the HCV 3′UTR.
These cell lines were maintained at 37° C., 5% CO2, 100% relative humidity in DMEM (Cat#11965-084, Invitrogen), with 10% fetal calf serum (“FCS”, Invitrogen), 1% non-essential amino acids (Invitrogen), 1% of Glutamax (Invitrogen), 1% of 100× penicillin/streptomycin (Cat#15140-122, Invitrogen) and Geneticin (Cat#10131-027, Invitrogen) at 0.75 mg/ml or 0.5 mg/ml for 11-7 and Huh-luc/neo-ET cells, respectively.
EC50 values of single agent compounds and combinations were determined by HCV RNA detection using quantitative RT-PCR, according to the manufacturer's instructions, with a TAQMAN® One-Step RT-PCR Master Mix Reagents Kit (Cat# AB 4309169, Applied Biosystems) on an ABI Model 7500 thermocycler. The TaqMan primers used for detecting and quantifying HCV RNA were obtained from Integrated DNA Technologies. HCV RNA was normalized to GAPDH RNA levels in drug-treated cells, which is detected and quantified using the Human GAPDH Endogenous Control Mix (Applied Biosystems, AB 4310884E). Total cellular RNA is purified from 96-well plates using the RNAqueous 96 kit (Ambion, Cat# AM1812). Chemical agent cytotoxicity is evaluated using an MTS assay according to the manufacturer's directions (Promega).
Since clinical drug resistance often develops in viral infections following single agent therapies, there is a need to assess the additive, antagonistic, or synergistic properties of combination therapies. We used the HCV replicon system to assess the potential use of the compound of the present invention or in combination therapies with Interferon alpha, cyclosporine analogs and inhibitors targeting other HCV proteins. The acute effects of a single or combinations of drugs are studied in the “Huh-luc/neo-ET” replicon with each chemical agent titrated in an X or Y direction in a 6 point two-fold dilution curve centered around the EC50 of each drug. Briefly, replicon cells are seeded at 7,000 cells per well in 90 ul DMEM (without phenol red, Invitrogen Cat.#31053-036) per well with 10% FCS, 1% non-essential amino acids, 1% of Glutamax and 1% of 100× penicillin/streptomycin and incubated overnight at 37° C., 5% CO2, 100% relative humidity. […]

**Q.** With `COC(=O)NC1CC[C@@H]2CC[C@@H](c3ncc(-c4ccc(-c5ccc(-c6cnc([C@@H]7CCCN7C(=O)[C@@H](NC(=O)OC)C(C)C)[nH]6)cc5)cc4)[nH]3)N2C1=O` (mixture of isomers) [Example 371] as the compound, how does the EC50 read?
**A.** < 1 nM

**Q.** How did the EC50 turn out when `COC(=O)N[C@H]1CC[C@@H]2SC[C@@H](c3ncc(-c4ccc(-c5ccc(-c6cnc([C@@H]7CCCN7C(=O)[C@@H](NC(=O)OC)C(C)C)[nH]6)cc5)cc4)[nH]3)N2C1=O` [Example 368] was run?
**A.** < 1 nM

**Q.** `COC(=O)N[C@H]1CC[C@H]2CC[C@@H](c3ncc(-c4ccc(-c5ccc(-c6cnc([C@@H]7CCCN7C(=O)[C@@H](NC(=O)OC)C(C)C)[nH]6)cc5)cc4)[nH]3)N2C1=O` [Example 369] was tested. Which EC50 did it give?
**A.** < 1 nM

**Q.** Which EC50 does the source give for `COC(=O)N[C@H](C(=O)N1CCC[C@H]1c1ncc(-c2ccc(-c3ccc(-c4cnc([C@@H]5CC[C@@H]6CC[C@@H](NC(=O)OC)C(=O)N65)[nH]4)cc3)cc2)[nH]1)C(C)C` [Example 370] here?
**A.** < 1 nM

**Q.** How did the EC50 turn out when `COC(=O)N[C@H](C(=O)N1CCC[C@H]1c1ncc(-c2ccc(-c3ccc(-c4cnc([C@@H]5CS[C@@H]6CCCC(=O)N65)[nH]4)cc3)cc2)[nH]1)C(C)C` [Example 372] was run?
**A.** < 1 nM

**Q.** With `COC(=O)N[C@H](C(=O)N1CCC[C@H]1c1ncc(-c2ccc(-c3ccc(-c4cnc([C@@H]5CS[C@H]6CCCC(=O)N65)[nH]4)cc3)cc2)[nH]1)C(C)C` [Example 373] as the compound, how does the EC50 read?
**A.** < 1 nM

**Q.** Which EC50 does the source give for `COC(=O)N[C@H](C(=O)N1CCC[C@H]1c1ncc(-c2ccc(-c3ccc(-c4cnc([C@@H]5CC[C@H]6CCCCC(=O)N65)[nH]4)cc3)cc2)[nH]1)C(C)C` [Example 374] here?
**A.** < 1 nM

**Q.** With `COC(=O)N[C@H](C(=O)N1CCC[C@H]1c1ncc(-c2ccc(-c3ccc(-c4cnc([C@@H]5CC[C@@H]6CCCCC(=O)N65)[nH]4)cc3)cc2)[nH]1)C(C)C` [Example 375] as the compound, how does the EC50 read?
**A.** < 1 nM

**Q.** How did the EC50 turn out when `COC(=O)N[C@H]1CCC[C@@H]2CC[C@@H](c3ncc(-c4ccc(-c5ccc(-c6cnc([C@@H]7CCCN7C(=O)[C@@H](NC(=O)OC)C(C)C)[nH]6)cc5)cc4)[nH]3)N2C1=O` [Example 376] was run?
**A.** < 1 nM
